Measurements taken from publication PMC10923054, “Antiplasmodial peptaibols act through membrane directed mechanisms” (Cell Chemical Biology, 2024).
Where two headings read alike, the source gives them in different places. Square brackets hold non-standard residues; d marks the D form. Peptide text beside a SMILES is read from it. Phe(ol) = N[C@H](CO)Cc1ccccc1; Leu(ol) = CC(C)C[C@H](N)CO; dIva = CC[C@@](C)(N)C(=O)O; Aib = CC(C)(N)C(=O)O

Experiments:
[1] = system: digestive vacuole of functionally isolated 3D7 trophozoites; test: FITC-dextran measurements of DV pH and membrane integrity; on DV Alkylization: key: -: A '–' indicates a negative finding; a single '+' indicates a positive finding; a double '++' indicates a strong positive finding; format: cell-based, P. falciparum; conditions: for localization of membrane impermeable dye FITC-dextran (DV membrane leakage): microscopic analysis after 2 h; for DV Alkylization: Figure 7A summary
Method: Preloading of 3D7 parasites with FITC-dextran was done as outlined in Saliba et al.[68] In summary, 2.25 mL of pre-warmed lysis buffer (5 mM HEPES, 11 mM glucose, 2 mM MgCl2, 2 mM ATP, and 110 μM FITC-dextran, pH 7.4) was added to 1 mL of packed RBCs and incubated at 30°C for 10 min. After, 2.25 mL of resealing buffer (280 mM NaCl, 40 mM KCl, 11 mM glucose, and 1 mM HEPES, pH 7.4) was added and cells were pelleted at 1,200 x g for 5 min then washed 3 x in RPMI. FITC-dextran loaded RBCs were then resuspended with 1 mL of synchronous trophozoite stage parasites (10–20%) parasitemia, at 4% hematocrit. Cultures were maintained in 50 mL for a minimum of 2 life cycles, until parasitemia reached >15%.
For assay use, trophozoite stage parasites were functionally isolated as described by van Schalkwyk et al. and Kirk et al. with some modifications.[69]^,[70] Parasites were resuspended in warm media with 0.05% saponin then centrifuged immediately at 2,060 x g for 10 min. Cells were washed in RPMI media 3 x then resuspended in HEPES buffered saline (100 mM KCl, 30 mM NaCl, 2 mM MgCl2, and 5 mM HEPES, pH 7.3) at 5 x 10^6 cells/mL. […] Samples were collected at 0.5, 1, and 2 h for flow cytometry using a CytoFLEX S (Beckman Coulter, Brea, CA), excitation 488 nm, emissions 530 and 585 nm. Gating was performed in FlowJo Version 10 using FITC-dextran loaded and unloaded controls. The ratio (Rgy) of the fluorescent intensity values was then graphed using Graph Pad Prism Version 9. For microscopic analysis, samples were collected after 2 h of treatment and imaged on a Leica TCS SP5 II confocal microscope (Leica Microsystems, Wetzlar, DE.) at excitation 488, emission 520 nm with a 30 nm bandpass filter, then processed with LAS-X software. Significance determined using a one-way ANOVA multiple comparisons test in GraphPad Prism Version 9.0.

red blood cell (RBC) = test: Percent hemolysis determination; format: cell-based, human; conditions: for Hemolytic Potential: Figure 7A summary; on Hemolytic Potential: key: -: A '–' indicates a negative finding; a single '+' indicates a positive finding; a double '++' indicates a strong positive finding
Method: Hemolysis assay performed as outlined in Duvall et al. with some modifications.[63] Whole blood was first washed and resuspended in PBS to isolate RBCs. Compound was then added in serial dilutions to PBS with 1% hematocrit, with vehicle or 0.01% saponin used as controls. Plates were incubated for 1 h at 37°C then centrifuged for 10 min at 900 x g. Supernatant was then transferred to a clear plate and absorbance was read at 550 nm. Extended incubation with compound (up to 3 days) was performed during assay optimization, with no changes noted in percent hemolysis.

[2] = system: HZ NPDG-I-resistant Dd2 clones (pfmdr1 mutants); format: cell-based, P. falciparum; conditions: for Fold Change in IC50 vs the parental line, clone 1B2 / Fold Change in IC50 vs the parental line, clone 1E2 / Fold Change in IC50 vs the parental line, clone 2B3 / Fold Change in IC50 vs the parental line, clone 3A3: Figure S5, 72 h, SYTO 61 flow cytometry; for pfMDR1 Clone Sensitivity: Figure 7A summary; on pfMDR1 Clone Sensitivity: key: -: A '–' indicates a negative finding; a single '+' indicates a positive finding; a double '++' indicates a strong positive finding
Method: Screening of HZ NPDG-I resistant clones was performed at 1% parasitemia, 0.2% hematocrit with flow cytometry in V-shaped 96-well plates. Briefly, compounds were subjected to a 3-fold serial dilution with the highest concentration set at 4 μM or 8 μM. Eleven dilution points were included in addition to no-drug controls. Three technical replicates were set up for each compound at each dilution point. The Dd2-B2 parent line, or the clonal line 1B2, 2B3, 3A3, or 1E2 were added at 0.4% hematocrit and 1% parasitemia to the diluted compounds at a 1:1 ratio. The plate was incubated at 37°C for 72 h in a chamber filled with a hypoxic gas mixture (3% oxygen, 5% carbon dioxide, and 92% nitrogen). After incubation, a blood pellet was formed at the bottom of each well of the 96-well plate. Supernatant was removed without disturbing the pellet, and 20 μl of SYTO 61(1:10,000 dilution; Thermo Fisher Scientific, Cat No. S11343) in PBS was added to each well and incubated for 15 mins at room temperature. The cells in each well were then diluted with 180 μl of PBS and subjected to flow cytometry for parasitemia determination using the HTS (High-Throughput Sampler) of BD FACSCanto II (BD Biosciences, NJ). Flow cytometry data was analyzed using FlowJo Version 10.4.0. Dose response curves were generated and IC50 values obtained with GraphPad Prism Version 9.1.1.
A clone of the Dd2 strain (Dd2-B2) of P. falciparum was used for in vitro evolution of resistance against harzianin NPDG I. Three flasks of 1.2 x 10^8 parasites were continuously exposed to a stepwise-increasing concentration of the compound over ∼3 months starting from 20 nM up to a final concentration of 100 nM. Once a stable rightward shift in 72 h IC50 was observed, cultures were subjected to limiting dilution to obtained harzianin-resistant clones. Each clone was expanded, phenotyped to confirm resistance, and submitted for whole genome sequencing. An untreated flask of Dd2-B2 parasites was maintained in parallel throughout the course of in vitro selection as a control.

[3] = Electrophysiology: reconstitution into planar lipid bilayers; conditions: for channel activity in planar lipid bilayers: 1 μM peptaibol, DPhPc bilayers, pH 7.0 saline; for Channel Induction: Figure 7A summary; on Channel Induction: key: -: A '–' indicates a negative finding; a single '+' indicates a positive finding; a double '++' indicates a strong positive finding
Method: Ion channel formation by peptaibols was evaluated with reconstitution into planar lipid bilayers using the Orbit Mini workstation (Nanion). Bilayers were formed from a 5 mg/ml decane solution of 1,2-diphytanoyl-sn-glycero-3-phosphocholine (DPhPc, Avanti Polar Lipids) across 100 μm diameter orifices in the MECA 4 recording chip with 4 microcavities. The bilayers were bathed with saline (in mM: 70 NaCl, 70 KCl, 2.5 MgCl2, 2 CaCl2, 10 HEPES, 10 MES, 10 glucose, pH 7.0) at both faces, with resistances of up to 500 GΩ before channel incorporation. Peptaibols were added from a 10 mM DMSO stock to the cis chamber at a final 1 μM concentration; spontaneous incorporation into the bilayer typically occurred within 10–15 min. Recordings were acquired at 20 kHz and filtered at 1.25 kHz.

[4] = system: P. berghei liver stage parasites in HepG2 cells; test: High content imaging P. berghei liver stage assay (luciferase 48 HPI, MSP1/AMA1 72 HPI, HepG2 area); format: cell-based; conditions: Figure 7A summary
Method: HepG2 cells infected with luciferase-expressing P. berghei sporozoites were seeded onto compound-loaded 384-well plates 2 hours after sporozoite addition. A live luciferase readout at 48 HPI[62] quantifies compound activity against parasite biomass, while HCI of MSP1 and AMA1 expression at 72 HPI quantifies effects on liver stage maturation and hepatic merozoite formation. Compound effects on hepatocytes are assessed based on HepG2 area occupied in the 72 HPI HCI assay. All data are normalized to in-plate DMSO controls.

[5] = 5 x EC50, isolated trophozoites

CC(=O)NC(C)(C)C(=O)N1CCC[C@H]1C(=O)NC(C)(C)C(=O)N[C@@H](C)C(=O)NC(C)(C)C(=O)N[C@@H](C)C(=O)N[C@@H](CCC(N)=O)C(=O)NC(C)(C)C(=O)N[C@H](C(=O)NC(C)(C)C(=O)NCC(=O)N[C@@H](CC(C)C)C(=O)NC(C)(C)C(=O)N1CCC[C@H]1C(=O)N[C@H](C(=O)NC(C)(C)C(=O)NC(C)(C)C(=O)N[C@@H](CCC(=O)O)C(=O)N[C@@H](CCC(N)=O)C(=O)N[C@H](CO)Cc1ccccc1)C(C)C)C(C)C [Alamethicin, reference compound] (Ac-[Aib]P[Aib]A[Aib]AQ[Aib]V[Aib]GL[Aib]PV[Aib][Aib]EQ[Phe(ol)]; N-terminus assumed)
pH dependent fluorescence ratio (FI585/FI530), DV pH, after 0.5 h [1, 5]: Rapid alkalization
localization of membrane impermeable dye FITC-dextran (DV membrane leakage) ([1]; 5 x EC50): no longer showed full colocalization of the dye within the DV
hemolysis at 25 μM (red blood cell (RBC); 25 μM, RBCs in PBS, 1% hematocrit, 1 h, 37°C, absorbance 550 nm, 0.01% saponin control, biological triplicate): 73%
Fold Change in IC50 vs the parental line, clone 1B2 [2]: 0.55
Fold Change in IC50 vs the parental line, clone 1E2 [2]: 0.45
Fold Change in IC50 vs the parental line, clone 2B3 [2]: 0.63
Fold Change in IC50 vs the parental line, clone 3A3 [2]: 0.54

CC[C@H](C)[C@H](NC(=O)[C@H](C)NC(=O)[C@@H]1CCCN1C(=O)C(C)(C)NC(=O)[C@H](CC(C)C)NC(=O)[C@H](CCC(N)=O)NC(=O)[C@@](C)(CC)NC(C)=O)C(=O)NC(C)(C)C(=O)N1CCC[C@H]1C(=O)N[C@](C)(CC)C(=O)N[C@@H](CC(C)C)C(=O)NC(C)(C)C(=O)N1CCC[C@H]1C(=O)N[C@H](CO)CC(C)C [HZ NPDG-H, harzianin NPDG H] (Ac-[dIva]QL[Aib]PAI[Aib]P[dIva]L[Aib]P[Leu(ol)])
pH dependent fluorescence ratio (FI585/FI530), DV pH, 0.5, 1 or 2 h [1, 5]: No significant (p > 0.05) change
DV Alkylization [1]: -
localization of membrane impermeable dye FITC-dextran (DV membrane leakage) ([1]; 5 x EC50): not seen
Hemolytic Potential (red blood cell (RBC)): -
channel activity in planar lipid bilayers [3]: did not induce detectable channel activity
Channel Induction [3]: -
Liver stage inhibition [4]: Maturation only
EC50 increase in HZ NPDG-I resistant clones vs parental line ([2]; 4 resistant clones screened): 1.4 fold
pfMDR1 Clone Sensitivity [2]: -
Fold Change in IC50 vs the parental line, clone 1B2 [2]: 0.62
Fold Change in IC50 vs the parental line, clone 1E2 [2]: 0.98
Fold Change in IC50 vs the parental line, clone 2B3 [2]: 1.14
Fold Change in IC50 vs the parental line, clone 3A3 [2]: 1.40

CC[C@H](C)[C@H](NC(=O)[C@H](CC(C)C)NC(=O)[C@H](CCC(N)=O)NC(=O)[C@@](C)(CC)NC(C)=O)C(=O)NC(C)(C)C(=O)N1CCC[C@H]1C(=O)N[C@](C)(CC)C(=O)N[C@@H](CC(C)C)C(=O)NC(C)(C)C(=O)N1CCC[C@H]1C(=O)N[C@H](CO)CC(C)C [HZ NPDG-I, harzianin NPDG I] (Ac-[dIva]QLI[Aib]P[dIva]L[Aib]P[Leu(ol)])
pH dependent fluorescence ratio (FI585/FI530), DV pH, after 1 h [1, 5]: moderate increase
pH dependent fluorescence ratio (FI585/FI530), DV pH, after 2 h [1, 5]: significant (p = 0.0015) increase
DV Alkylization [1]: +
localization of membrane impermeable dye FITC-dextran (DV membrane leakage) ([1]; 5 x EC50): no longer showed full colocalization of the dye within the DV
Hemolytic Potential (red blood cell (RBC)): -
channel activity in planar lipid bilayers [3]: reproducibly induced unambiguous channel-like activity
Channel Induction [3]: +
Liver stage inhibition [4]: Maturation only
pfMDR1 Clone Sensitivity [2]: ++
Fold Change in IC50 vs the parental line, clone 1B2 [2]: 8.70
Fold Change in IC50 vs the parental line, clone 1E2 [2]: 5.70
Fold Change in IC50 vs the parental line, clone 2B3 [2]: 7.00
Fold Change in IC50 vs the parental line, clone 3A3 [2]: 4.50
fold change, clone 1D5 ([2]; flask 1, IC50 vs Dd2-B2): 4.65
fold change, clone 1H3 ([2]; flask 1, IC50 vs Dd2-B2): 7.57
fold change, clone Harzianin-Dd2-1B2 ([2]; flask 1, IC50 vs Dd2-B2): 8.64
fold change, clone Harzianin-Dd2-1C12 ([2]; flask 1, IC50 vs Dd2-B2): 9.71
fold change, clone Harzianin-Dd2-1E2 ([2]; flask 1, IC50 vs Dd2-B2): 5.63
IC50 ([2]; flask 1, read-out: IC50, clone 1D5): 0.249 nM
IC50 ([2]; flask 1, read-out: IC50, clone 1H3): 0.406 nM
IC50 ([2]; flask 1, read-out: IC50, clone Harzianin-Dd2-1B2): 0.463 nM
IC50 ([2]; flask 1, read-out: IC50, clone Harzianin-Dd2-1C12): 0.52 nM
IC50 ([2]; flask 1, read-out: IC50, clone Harzianin-Dd2-1E2): 0.302 nM
fold change, clone 2B7 ([2]; flask 2, IC50 vs Dd2-B2): 3.87
fold change, clone 2E9 ([2]; flask 2, IC50 vs Dd2-B2): 6.77
fold change, clone Harzianin-Dd2-2B3 ([2]; flask 2, IC50 vs Dd2-B2): 6.98
fold change, clone Harzianin-Dd2-2E8 ([2]; flask 2, IC50 vs Dd2-B2): 5.31
fold change, clone Harzianin-Dd2-2G7 ([2]; flask 2, IC50 vs Dd2-B2): 4.60
IC50 ([2]; flask 2, read-out: IC50, clone 2B7): 0.0859 nM
IC50 ([2]; flask 2, read-out: IC50, clone 2E9): 0.15 nM
IC50 ([2]; flask 2, read-out: IC50, clone Harzianin-Dd2-2B3): 0.155 nM
IC50 ([2]; flask 2, read-out: IC50, clone Harzianin-Dd2-2E8): 0.118 nM
IC50 ([2]; flask 2, read-out: IC50, clone Harzianin-Dd2-2G7): 0.102 nM
fold change, clone 3A5 ([2]; flask 3, IC50 vs DD2-B2): 4.30
fold change, clone 3B7 ([2]; flask 3, IC50 vs DD2-B2): 4.05
fold change, clone 3G7 ([2]; flask 3, IC50 vs DD2-B2): 3.98
fold change, clone Harzianin-Dd2-3A3 ([2]; flask 3, IC50 vs DD2-B2): 4.51
fold change, clone Harzianin-Dd2-3C6 ([2]; flask 3, IC50 vs DD2-B2): 4.68
fold change, clone Harzianin-Dd2-3G11 ([2]; flask 3, IC50 vs DD2-B2): 3.93
IC50 ([2]; flask 3, read-out: IC50, clone 3A5): 0.188 nM
IC50 ([2]; flask 3, read-out: IC50, clone 3B7): 0.177 nM
IC50 ([2]; flask 3, read-out: IC50, clone 3G7): 0.174 nM
IC50 ([2]; flask 3, read-out: IC50, clone Harzianin-Dd2-3A3): 0.197 nM
IC50 ([2]; flask 3, read-out: IC50, clone Harzianin-Dd2-3C6): 0.204 nM
IC50 ([2]; flask 3, read-out: IC50, clone Harzianin-Dd2-3G11): 0.172 nM
